US11440880B2, “Thalidomide analogs and methods of use” (The USA, as represented by the Secretary, Department of …, priority 2015, dated 2022)

How the values were obtained:
TNF-α protein = TNF-α protein level (ELISA) in LPS-challenged RAW 264.7 cells; type: cell-based, mouse; design: key: NS=not significant; a “+” sign=anti-inflammatory or increased cell numbers; a “−” sign=cell toxicity or pro-inflammatory; details: LPS 30 or 60 ng/mL, 24 h
Method in brief: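 RAW 264.7 cells pretreated 1 h with compound in DMSO vehicle, then challenged with LPS (30 or 60 ng/mL) for 24 h at 37° C. Conditioned-media nitrite by Griess (520 nm, sodium nitrite standard curve, 1.5 μM cutoff) in μM; mouse TNF-α by ELISA as pg/ml or % change from control.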

RAW 264.7 cells = test: Cell viability (CellTiter 96 AQueous One) of LPS-challenged RAW 264.7 cells; type: cell-based, mouse; design: key: NS=not significant; a “+” sign=anti-inflammatory or increased cell numbers; a “−” sign=cell toxicity or pro-inflammatory
Method in brief: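 RAW 264.7 murine macrophages pretreated 1 h with compound or DMSO vehicle, then challenged with LPS (serotype 055:B5) at 30 or 60 ng/mL final for 24 h. After media replacement, viability measured by tetrazolium (MTS) conversion, absorbance at 490 nm, reported as O.D.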

| SMILES | TNF-α (TNF-α protein; 1 μM) | TNF-α (TNF-α protein; 10 μM) | TNF-α (TNF-α protein; 30 μM) | TNF-α (TNF-α protein; 60 μM) | TNF-α (TNF-α protein; 100 μM) | Viability (RAW 264.7 cells; 1 μM) | Viability (RAW 264.7 cells; 10 μM) | Viability (RAW 264.7 cells; 30 μM) | Viability (RAW 264.7 cells; 60 μM) | Viability (RAW 264.7 cells; 100 μM) | TNF-α (TNF-α protein; 3 μM) | Viability (RAW 264.7 cells; 3 μM) |
| --- | --- | --- | --- | --- | --- | --- | --- | --- | --- | --- | --- | --- |
| O=C1CCC(N2C(=O)c3cccc([N+](=O)[O-])c3C2=O)C(=O)N1 (centres unmarked) [Compound 5] | NS | NS | NS | NS | NS | NS | NS | NS | NS | NS |  |  |
| O=C1NC(=S)CCC1N1C(=O)c2cccc([N+](=O)[O-])c2C1=O (centres unmarked) [Compound 7, 2-(2-Oxo-6-thioxo-3-piperidinyl)-4-nitro-1H-isoindole-1,3(2H)-dione] | NS | NS | NS | NS | + | NS | NS | NS | NS | + |  |  |
| Nc1cccc2c1CN(C1CCC(=O)NC1=O)C2=S (centres unmarked) [Compound 29] |  | NS | NS |  |  |  | − | − |  |  | NS | − |
| Nc1cccc2c1CN(C13CC4CC(CC(C4)C1)C3)C2=O [Compound 77, 2,3-Dihydro-4-amino-2-(tricyclo[3.3.1.1^3,7]dec-1-yl)-1H-isoindol-1-one] | NS | NS | NS |  |  | NS | NS | NS |  |  |  |  |
| CC(N1Cc2c(N)cccc2C1=O)C12CC3CC(CC(C3)C1)C2 (centres unmarked) [Compound 81] | NS | NS | + |  |  | NS | NS | NS |  |  |  |  |
| O=C1c2ccccc2CN1C12CC3CC(CC(O)(C3)C1)C2 [Compound 86, 2,3-Dihydro-2-(tricyclo[3.3.1.1^3,7]dec-1-hydroxy-3-yl)-1H-isoindol-1-one] | NS | + | + |  |  | NS | NS | NS |  |  |  |  |
